Test results from PubChem BioAssay (NCI).
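1) Cells in 96-well plates. 2) Compound, 48 h, 5 concentrations. 3) Linear interpolation between surrounding doses. 4) Unreached endpoint = highest concentration. TGI marks complete inhibition of growth.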

What was measured:
Experiment in all cases: NCI-60 cell line screen, 48 h
786-0 renal = test system: 786-0 renal
A498 renal = test system: A498 renal
A549 NSCLC = test system: A549 NSCLC
ACHN renal = test system: ACHN renal
BT-549 breast = test system: BT-549 breast
CAKI-1 renal = test system: CAKI-1 renal
CCRF-CEM leukemia = test system: CCRF-CEM leukemia
COLO 205 colon = test system: COLO 205 colon
DU-145 prostate = test system: DU-145 prostate
EKVX NSCLC = test system: EKVX NSCLC
HCC-2998 colon = test system: HCC-2998 colon
HCT-116 colon = test system: HCT-116 colon
HCT-15 colon = test system: HCT-15 colon
HL-60(TB) leukemia = test system: HL-60(TB) leukemia
HOP-62 NSCLC = test system: HOP-62 NSCLC
HOP-92 NSCLC = test system: HOP-92 NSCLC
HS 578T breast = test system: HS 578T breast
HT29 colon = test system: HT29 colon
IGROV1 ovarian = test system: IGROV1 ovarian
K-562 leukemia = test system: K-562 leukemia
KM12 colon = test system: KM12 colon
LOX IMVI melanoma = test system: LOX IMVI melanoma
M14 melanoma = test system: M14 melanoma
MALME-3M melanoma = test system: MALME-3M melanoma
MCF7 breast = test system: MCF7 breast
MDA-MB-231 breast = test system: MDA-MB-231 breast
MDA-MB-435 = test system: MDA-MB-435
MDA-N = test system: MDA-N
MOLT-4 leukemia = test system: MOLT-4 leukemia
NCI-H226 lung = test system: NCI-H226 lung
NCI-H23 lung = test system: NCI-H23 lung
NCI-H460 lung = test system: NCI-H460 lung
NCI-H522 lung = test system: NCI-H522 lung
NCI/ADR-RES ovarian = test system: NCI/ADR-RES ovarian
OVCAR-3 ovarian = test system: OVCAR-3 ovarian
OVCAR-4 ovarian = test system: OVCAR-4 ovarian
OVCAR-5 ovarian = test system: OVCAR-5 ovarian
OVCAR-8 ovarian = test system: OVCAR-8 ovarian
PC-3 prostate = test system: PC-3 prostate
RPMI-8226 leukemia = test system: RPMI-8226 leukemia
RXF 393 renal = test system: RXF 393 renal
SF-268 CNS = test system: SF-268 CNS
SF-295 CNS = test system: SF-295 CNS
SF-539 CNS = test system: SF-539 CNS
SK-MEL-2 melanoma = test system: SK-MEL-2 melanoma
SK-MEL-28 melanoma = test system: SK-MEL-28 melanoma
SK-MEL-5 melanoma = test system: SK-MEL-5 melanoma
SK-OV-3 ovarian = test system: SK-OV-3 ovarian
SN12C renal = test system: SN12C renal
SNB-19 CNS = test system: SNB-19 CNS
SNB-75 CNS = test system: SNB-75 CNS
SR leukemia = test system: SR leukemia
SW-620 colon = test system: SW-620 colon
T-47D breast = test system: T-47D breast
TK-10 renal = test system: TK-10 renal
U251 CNS = test system: U251 CNS
UACC-257 melanoma = test system: UACC-257 melanoma
UACC-62 melanoma = test system: UACC-62 melanoma
UO-31 renal = test system: UO-31 renal

SMILES: COc1ccc(NC(=S)N=Nc2c(O)[nH]c3ccccc23)cc1
- TGI (786-0 renal): > 55.9 µM
- TGI (A498 renal): > 83.3 µM
- TGI (A549 NSCLC): > 100 µM
- TGI (ACHN renal): > 95.4 µM
- TGI (BT-549 breast): 33.2 µM
- TGI (CAKI-1 renal): 98.3 µM
- TGI (CCRF-CEM leukemia): > 100 µM
- TGI (COLO 205 colon): > 100 µM
- TGI (DU-145 prostate): > 100 µM
- TGI (EKVX NSCLC): > 100 µM
- TGI (HCC-2998 colon): > 100 µM
- TGI (HCT-116 colon): > 100 µM
- TGI (HCT-15 colon): > 100 µM
- TGI (HL-60(TB) leukemia): > 100 µM
- TGI (HOP-62 NSCLC): > 45.5 µM
- TGI (HOP-92 NSCLC): > 78.7 µM
- TGI (HS 578T breast): > 100 µM
- TGI (HT29 colon): > 100 µM
- TGI (IGROV1 ovarian): > 100 µM
- TGI (K-562 leukemia): > 100 µM
- TGI (KM12 colon): > 100 µM
- TGI (LOX IMVI melanoma): > 100 µM
- TGI (M14 melanoma): > 100 µM
- TGI (MALME-3M melanoma): > 42.8 µM
- TGI (MCF7 breast): > 100 µM
- TGI (MDA-MB-231 breast): > 90.8 µM
- TGI (MDA-MB-435): > 100 µM
- TGI (MDA-N): > 100 µM
- TGI (MOLT-4 leukemia): > 100 µM
- TGI (NCI-H226 lung): > 100 µM
- TGI (NCI-H23 lung): > 100 µM
- TGI (NCI-H460 lung): > 100 µM
- TGI (NCI-H522 lung): > 100 µM
- TGI (NCI/ADR-RES ovarian): > 42.6 µM
- TGI (OVCAR-3 ovarian): > 58.6 µM
- TGI (OVCAR-4 ovarian): > 95.2 µM
- TGI (OVCAR-5 ovarian): > 100 µM
- TGI (OVCAR-8 ovarian): > 76.2 µM
- TGI (PC-3 prostate): > 70 µM
- TGI (RPMI-8226 leukemia): > 100 µM
- TGI (RXF 393 renal): > 61 µM
- TGI (SF-268 CNS): > 100 µM
- TGI (SF-295 CNS): > 58.5 µM
- TGI (SF-539 CNS): > 70.4 µM
- TGI (SK-MEL-2 melanoma): > 76.4 µM
- TGI (SK-MEL-28 melanoma): > 100 µM
- TGI (SK-MEL-5 melanoma): > 100 µM
- TGI (SK-OV-3 ovarian): > 68.8 µM
- TGI (SN12C renal): > 89 µM
- TGI (SNB-19 CNS): > 100 µM
- TGI (SNB-75 CNS): > 78.8 µM
- TGI (SR leukemia): > 100 µM
- TGI (SW-620 colon): > 100 µM
- TGI (T-47D breast): > 100 µM
- TGI (TK-10 renal): > 79 µM
- TGI (U251 CNS): > 59.9 µM
- TGI (UACC-257 melanoma): > 100 µM
- TGI (UACC-62 melanoma): > 100 µM
- TGI (UO-31 renal): > 100 µM

SMILES: CC(C)=CCC/C(C)=C/CC/C(C)=C/CCN(C)CCO
- TGI (786-0 renal): 4.83 µM
- TGI (A498 renal): 29.3 µM
- TGI (A549 NSCLC): 23.3 µM
- TGI (ACHN renal): 23.9 µM
- TGI (BT-549 breast): 26.3 µM
- TGI (CAKI-1 renal): 19.2 µM
- TGI (CCRF-CEM leukemia): 8.65 µM
- TGI (COLO 205 colon): 3.25 µM
- TGI (DU-145 prostate): 25.9 µM
- TGI (EKVX NSCLC): 32.3 µM
- TGI (HCC-2998 colon): 4.38 µM
- TGI (HCT-116 colon): 16.3 µM
- TGI (HCT-15 colon): 13.7 µM
- TGI (HL-60(TB) leukemia): 3.68 µM
- TGI (HOP-62 NSCLC): 19.6 µM
- TGI (HOP-92 NSCLC): 9.9 µM
- TGI (HS 578T breast): 6.57 µM
- TGI (HT29 colon): 23.3 µM
- TGI (IGROV1 ovarian): 8.34 µM
- TGI (K-562 leukemia): 3.24 µM
- TGI (KM12 colon): 7.77 µM
- TGI (LOX IMVI melanoma): 14.3 µM
- TGI (M14 melanoma): 3.81 µM
- TGI (MALME-3M melanoma): 8.33 µM
- TGI (MCF7 breast): 7.13 µM
- TGI (MDA-MB-231 breast): 23.9 µM
- TGI (MDA-MB-435): 17.4 µM
- TGI (MDA-N): 14.3 µM
- TGI (MOLT-4 leukemia): 11.1 µM
- TGI (NCI-H226 lung): 38.7 µM
- TGI (NCI-H23 lung): 27.6 µM
- TGI (NCI-H460 lung): 14.5 µM
- TGI (NCI-H522 lung): 16.5 µM
- TGI (NCI/ADR-RES ovarian): 26.7 µM
- TGI (OVCAR-3 ovarian): 28.9 µM
- TGI (OVCAR-4 ovarian): 29.1 µM
- TGI (OVCAR-5 ovarian): 21.1 µM
- TGI (OVCAR-8 ovarian): 27.3 µM
- TGI (PC-3 prostate): 18.2 µM
- TGI (RPMI-8226 leukemia): 11 µM
- TGI (RXF 393 renal): 24.9 µM
- TGI (SF-268 CNS): 27 µM
- TGI (SF-295 CNS): 12.1 µM
- TGI (SF-539 CNS): 14.8 µM
- TGI (SK-MEL-2 melanoma): 28.1 µM
- TGI (SK-MEL-28 melanoma): 25.1 µM
- TGI (SK-MEL-5 melanoma): 3.44 µM
- TGI (SK-OV-3 ovarian): 29.6 µM
- TGI (SN12C renal): 25.5 µM
- TGI (SNB-19 CNS): 22.8 µM
- TGI (SNB-75 CNS): 21 µM
- TGI (SR leukemia): 21.4 µM
- TGI (SW-620 colon): 18.4 µM
- TGI (T-47D breast): 7.4 µM
- TGI (TK-10 renal): 19.4 µM
- TGI (U251 CNS): 12.7 µM
- TGI (UACC-257 melanoma): 21.7 µM
- TGI (UACC-62 melanoma): 27.1 µM
- TGI (UO-31 renal): 25.3 µM

SMILES: COc1cc(C2c3cc4c(cc3CC3COC(=O)N32)OCO4)cc(OC)c1OC (configuration not stated)
- TGI (786-0 renal): > 100 µM
- TGI (A498 renal): > 100 µM
- TGI (A549 NSCLC): > 100 µM
- TGI (ACHN renal): > 100 µM
- TGI (BT-549 breast): > 100 µM
- TGI (CAKI-1 renal): > 100 µM
- TGI (CCRF-CEM leukemia): > 36.4 µM
- TGI (COLO 205 colon): 4.89 µM
- TGI (DU-145 prostate): > 100 µM
- TGI (EKVX NSCLC): > 100 µM
- TGI (HCC-2998 colon): 8.7 µM
- TGI (HCT-116 colon): > 100 µM
- TGI (HCT-15 colon): > 27.9 µM
- TGI (HL-60(TB) leukemia): 8.6 µM
- TGI (HOP-62 NSCLC): > 100 µM
- TGI (HOP-92 NSCLC): > 94.9 µM
- TGI (HS 578T breast): > 57.2 µM
- TGI (HT29 colon): 5.14 µM
- TGI (IGROV1 ovarian): > 100 µM
- TGI (K-562 leukemia): > 100 µM
- TGI (KM12 colon): > 61.7 µM
- TGI (LOX IMVI melanoma): > 100 µM
- TGI (M14 melanoma): > 100 µM
- TGI (MALME-3M melanoma): > 100 µM
- TGI (MCF7 breast): > 100 µM
- TGI (MDA-MB-231 breast): 30 µM
- TGI (MDA-MB-435): 1.44 µM
- TGI (MDA-N): 1.28 µM
- TGI (MOLT-4 leukemia): > 61.8 µM
- TGI (NCI-H226 lung): > 92.5 µM
- TGI (NCI-H23 lung): > 31.6 µM
- TGI (NCI-H460 lung): > 100 µM
- TGI (NCI-H522 lung): 5.66 µM
- TGI (NCI/ADR-RES ovarian): 4.26 µM
- TGI (OVCAR-3 ovarian): 5.05 µM
- TGI (OVCAR-4 ovarian): > 100 µM
- TGI (OVCAR-5 ovarian): > 100 µM
- TGI (OVCAR-8 ovarian): > 100 µM
- TGI (PC-3 prostate): > 100 µM
- TGI (RPMI-8226 leukemia): > 100 µM
- TGI (RXF 393 renal): > 100 µM
- TGI (SF-268 CNS): > 100 µM
- TGI (SF-295 CNS): 5.35 µM
- TGI (SF-539 CNS): 5.8 µM
- TGI (SK-MEL-2 melanoma): > 100 µM
- TGI (SK-MEL-28 melanoma): > 100 µM
- TGI (SK-MEL-5 melanoma): 35.6 µM
- TGI (SK-OV-3 ovarian): > 100 µM
- TGI (SN12C renal): > 48.1 µM
- TGI (SNB-19 CNS): > 100 µM
- TGI (SNB-75 CNS): > 100 µM
- TGI (SR leukemia): > 28.7 µM
- TGI (SW-620 colon): > 100 µM
- TGI (T-47D breast): > 100 µM
- TGI (TK-10 renal): > 100 µM
- TGI (U251 CNS): > 31.6 µM
- TGI (UACC-257 melanoma): > 100 µM
- TGI (UACC-62 melanoma): > 100 µM
- TGI (UO-31 renal): > 100 µM
